Read-outs that look alike come from different tables or passages of the source. Each block holds one compound with its values, some of them ahead of it.
How the values were obtained:
apoB mRNA editing = test system: apoB mRNA editing
Experimental: Protein phosphatase inhibitor studies. […] The compounds' effects on apoB mRNA editing were evaluated by RT-PCR and poisoned-primer extension analysis (Sowden et al. Rna 2:274-88 (1996)). The effect of 470 nM cantharidin on ACF subcellular distribution was investigated by treating primary hepatocyte cultures for 6 hours followed by nuclear and cytoplasmic extract preparation.
It was reasoned that if phosphorylation of ACF regulated editing activity, treatment of rat primary hepatocytes with phosphatase inhibitors might stimulate apoB mRNA editing activity. […] The experiments (n=4-6) were done over a number of months and therefore represent primary hepatocytes from several rats.
Editing activity was quantified from primary hepatocytes incubated with 10-100-times the EC50 of the various […] (Calbiochem).

PKA [1] = conditions: cited from earlier work
ACF = ACF phosphorylation in 32P-labeled rat primary hepatocytes (ACF immunoprecipitation, autoradiography); format: cell-based; conditions: 32Pi 500 μCi/ml, 6 hours
Experimental: In vivo phosphorylation of ACF. In vivo ^32P labeling was performed by intraperitoneal injection of rats with 12.5 mCi of orthophosphoric acid (10 mCi/ml ^32PO4; NEN, Boston, Mass.) buffered with 50 mM HEPES, pH 7.0 and 150 mM NaCl. After 4 hours, rats were sacrificed and hepatic cytoplasmic and nuclear extracts prepared. Primary hepatocyte cultures in 60 mm dishes were incubated in phosphate-free Minimum Essential Eagle Media (Sigma) containing 0.1 nM porcine insulin for 6 hours and subsequently in fresh media containing 10 nM insulin (equivalent to that seen in post-prandial serum) or 0.45% to 0.9% ethanol (AAPER Alcohol and Chemical Co., Shelbyville, Ky.) (Van Mater et al. (1998), Yang et al. (2000)) plus 2.0 mCi orthophosphoric acid. Cultures were labeled for 4 hours prior to extract preparation.
To evaluate the effect of phosphatase inhibition on ACF phosphorylation, cultures were pre-incubated for 2 hours with 470 nM cantharadin in phosphate-free Waymouth's media and subsequently supplemented with 0.5 mCi ^32pO4 and incubated for an additional 4 hours. Cultures were harvested and subcellular extracts prepared.
Immunological techniques. […] For immunoprecipitation analyses all radiolabeled extracts were adjusted to 5 mM MgCl2 and digested with 100 units of DNase I (Promega), RNase T1 (Roche, Ind.), and RNase A (Sigma) for 1 hour on ice to remove radiolabeled nucleic acid. Where applicable, extracts were incubated overnight with ACF CT antibody at 4° C. and subsequently reacted with Protein A-agarose (Oncogene Research Products, Boston, Mass.) pre-washed with 1×TBS/10 mM NaF. The immuno-absorbed material was washed 3 times with 1×TBS/10 mM NaF, 3 times with 1×TBS/1 M NaCl (Yang et al. (1997)) and lastly 3 times with 1×TBS. Immuno-absorbed material to be treated with alkaline phosphatase was washed with 50 mM Tris, pH 8.4, 1 mM MgCl2, 0.1 mM ZnCl2, 25% glycerol and then incubated with 5 U CIAP for 1 hour at 30° C. and then washed 6 times with 1×TBS. ACF-antibody complexes were eluted with 3 M sodium thiocyanate, acetone precipitated and analyzed by 10.5% SDS-PAGE followed by autoradiography and/or western blotting with ACF NT antibody. For ACF immunoprecipitation from gradient fractions an equal volume of pooled gradient fractions from sedimentation zones of interest were reacted with sub-saturating amounts of ACF CT antibody to ensure that the recovery of phospho-ACF was not simply a reflection of ACF abundance in each zone.
To evaluate this, cytoplasmic and nuclear extracts from radiolabeled primary hepatocyte cultures were sedimented through 10%-50% glycerol gradients. […] The ACF immunoprecipitates were resolved by SDS-PAGE, transferred to nitrocellulose, autoradiographed and subjected to phosphorimager scanning to detect and quantify radiolabeled proteins prior to immunoblotting with the ACF NT antibody.

ACF64 = test: ACF phosphorylation in 32P-labeled McArdle cells; format: cell-based, rat; conditions: 6 hour
Experimental: Numerous kinase inhibitors were evaluated but only those acting on Protein Kinase C affected editing activity. […] Cell extracts were immunoprecipitated with the ACF C-terminal specific antibody and analyzed by PAGE and autoradiography (FIG. 23). […] However, at and above the IC50 of PKC, phosphorylation of ACF64 was inhibited by 90% and 100%.

PKC [2] = conditions: cited from earlier work
PKA [3] = conditions: cited from earlier work; remark: listed apart in the source
PKC [4] = conditions: cited from earlier work; remark: listed apart in the source
[5] = 10 mg/kg per day IP, 26 day period; cited from earlier work

Compound: Nc1ncnc2c1nc(Sc1ccc(Cl)cc1)n2[C@@H]1O[C@@H]2COP(=O)(O)O[C@H]2[C@H]1O [8-cpt cAMP]
- apoB mRNA editing, Mean (apoB mRNA editing; 2 μM): 61.2%
- apoB mRNA editing, Mean (apoB mRNA editing; 20 μM): 59.3%
- apoB mRNA editing, Mean (apoB mRNA editing; 200 μM): 59.6%
- EC50 (PKA [1]): 2 µM

- effect on editing in hepatocytes (apoB mRNA editing): stimulated
Compound: NCCNS(=O)(=O)c1cccc2c(Cl)cccc12 [A3]
- concentration at which ACF phosphorylation was inhibited (ACF): ≥ 40 µM
- inhibition of ACF64 phosphorylation (ACF64; above the IC50 of PKC (120 μM)): 100%
- decrease of ACF phosphorylation relative to untreated cells (ACF64; at the IC50 of PKA (4 μM)): 20%
- inhibition of ACF64 phosphorylation (ACF64; at the IC50 of PKC (40 μM)): 90%
- IC50 (PKC [2]): 47 µM
- IC50 (PKA [3]): 4 µM

Compound: CC(C)[C@H]1C(=O)N[C@H](CO)Cc2c[nH]c3cccc(c23)N1C [Indolactam V]
- apoB mRNA editing, Mean (apoB mRNA editing; 12 μM): 92.47%
- editing activity compared to solvent treated controls (from 65%) (apoB mRNA editing; 12 μM, SEM 4.8, n=2): 92%
- apoB mRNA editing, Mean (apoB mRNA editing; 120 μM): 91.57%
- effect on apoB mRNA editing (apoB mRNA editing; concentration not given): stimulated editing
- EC50 (PKC [4]): 0.2 µM

Compound: leptin: protein product of the ob gene, 16 kDa circulating hormone
- decrease in weight at the conclusion of the study [5]: ~20%

From patent publication US20090075925A1, “Methods and Compositions Related to APOBEC-1 Expression” (priority 2006, published 2009)
